# Values joined by “and” are separate entries in the source; they are usually repeats but may differ in a detail not shown here. Equal entries are not always repeated.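 All cell lines were grown in 96-well plates and treated with compound for 48 hours. The concentration for 50% growth inhibition is given as GI50. Definition used: TGI = concentration required for complete inhibition of growth.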
# How the values were obtained:
# Assay in all cases: NCI tumour cell line growth inhibition, 48 h
# DU-145 prostate = test system: DU-145 prostate
# HCC-2998 colon = test system: HCC-2998 colon
# MDA-N = test system: MDA-N
# NCI/ADR-RES ovarian = test system: NCI/ADR-RES ovarian
# OVCAR-3 ovarian = test system: OVCAR-3 ovarian
# SK-MEL-2 melanoma = test system: SK-MEL-2 melanoma
# SNB-19 CNS = test system: SNB-19 CNS
# SNB-75 CNS = test system: SNB-75 CNS
# T-47D breast = test system: T-47D breast
# MALME-3M melanoma = test system: MALME-3M melanoma
SMILES,TGI (DU-145 prostate),TGI (HCC-2998 colon),TGI (MDA-N),TGI (NCI/ADR-RES ovarian),TGI (OVCAR-3 ovarian),TGI (SK-MEL-2 melanoma),TGI (SNB-19 CNS),TGI (SNB-75 CNS),TGI (T-47D breast),TGI (MALME-3M melanoma),GI50 (NCI/ADR-RES ovarian),GI50 (OVCAR-3 ovarian),GI50 (SNB-19 CNS),GI50 (SNB-75 CNS)
CCCCN(CCCC)c1ccc(N=Nc2ccc(S(=O)(=O)O)cc2)cc1,> 100 µM,73.7 µM,> 100 µM,70.9 µM,> 100 µM,> 100 µM,> 100 µM,39.2 µM,55.5 µM,–,–,–,–,–
CC1(C)SC2C(NC(=O)Cc3ccccc3)C(=O)N2C1C(=O)O (centres undefined),> 100 µM,–,> 100 µM,> 100 µM,> 100 µM,> 100 µM,> 100 µM,> 100 µM,> 100 µM,> 100 µM,–,–,–,–
c1ccc2c(Cc3c[nH]c4ccccc34)c[nH]c2c1,34.6 µM,–,41.5 µM,62 µM,30.8 µM,52.6 µM,44.4 µM,36.8 µM,63.7 µM,51 µM,–,–,–,–
O=[N+]([O-])c1cccc2nc3ccccc3c(NCCNCCO)c12,–,0.0101 µM,–,2.15 µM and 14.9 µM,0.0268 µM and 0.0556 µM,0.00744 µM,–,0.0565 µM and 0.0397 µM,0.101 µM and 0.0533 µM,0.0216 µM and 0.0317 µM,0.911 µM,0.0114 µM,0.0102 µM,0.0132 µM
N#Cc1nc(Cc2ccccc2)oc1N,> 100 µM,–,> 100 µM,–,> 100 µM,> 100 µM,> 100 µM,–,> 100 µM,> 100 µM,–,–,–,–
CC1(C)OC[C@@]2([C@@H]3CC[C@@H](C3)C2(C)C)N1O,> 100 µM,–,> 100 µM,> 100 µM,> 100 µM,> 100 µM,> 100 µM,> 100 µM,> 100 µM,> 100 µM,–,–,–,–
COc1ccc(/C=N/n2c(Cc3ccc(Cl)cc3)n[nH]c2=O)cc1,> 100 µM,> 100 µM,> 100 µM,> 100 µM,> 100 µM,61.5 µM,35.6 µM,38.5 µM,> 100 µM,–,–,–,–,–
Cc1cc2c(cc1Cl)Sc1nnc(C)n1S2(=O)=O,65 µM,33.9 µM,29.7 µM,69.8 µM,29.6 µM,–,86.5 µM,47.5 µM,28.3 µM,22.8 µM,–,–,–,–
Cc1ccc(NC(=S)NNC(=O)c2cc(-c3ccccc3)nc3ccccc23)cc1C,45.4 µM,35.2 µM,40 µM,49.1 µM,–,37.3 µM,93.2 µM,56.5 µM,8.41 µM,43.6 µM,–,–,–,–
CC(C)(C)OC(=O)/C=C/C(=O)O/C=C/[N+](=O)[O-],> 100 µM,> 100 µM,> 100 µM,–,> 100 µM,–,–,> 100 µM,–,–,–,–,–,–
O=C(NCCCCNCCCNC(=O)C(F)(F)F)C(F)(F)F,> 100 µM,> 100 µM,–,> 100 µM,> 100 µM,> 100 µM,> 100 µM,> 100 µM,> 100 µM,–,–,–,–,–
O=[N+]([O-])C(=C/C1CCCCC1)/C(=C\C1CCCCC1)[N+](=O)[O-],26.7 µM,36.4 µM,–,7.29 µM,31.6 µM,37.8 µM,35.7 µM,31.3 µM,38 µM,6.69 µM,–,–,–,–
COc1ccc(S(=O)Cc2cc(OC)ccc2OC)cc1 (centres undefined),> 100 µM,> 100 µM,> 100 µM,> 100 µM,> 100 µM,–,> 100 µM,> 100 µM,> 100 µM,> 100 µM,–,–,–,–
O=C(c1ccc(Cl)cc1)N(C(=S)N1CCN(c2ccccc2)CC1)c1ccccc1,–,–,–,–,> 100 µM,> 100 µM,> 100 µM,> 100 µM,–,> 100 µM,–,–,–,–
C(/C=N/NC1=NCCN1)=N\NC1=NCCN1,–,> 100 µM,> 100 µM,> 100 µM,> 100 µM,> 100 µM,> 100 µM,> 100 µM,> 100 µM,> 100 µM,–,–,–,–
C=CCC1(O)c2cccc(O)c2C(=O)c2cccc(O)c21 (centres undefined),54.5 µM,30.3 µM,31.1 µM,40.2 µM,59.7 µM,31.1 µM,–,52 µM,30.2 µM,–,–,–,–,–
CCO[C@H]1C[C@@H](c2ccccc2)[C@]2(C)C[C@H](C(=O)OC)ON2O1,> 100 µM,–,> 100 µM,> 100 µM,> 100 µM,> 100 µM,> 100 µM,–,> 100 µM,> 100 µM,–,–,–,–
O=S(=O)(NC(c1ccccc1)(c1cc2ccccc2[nH]1)c1cc2ccccc2n1S(=O)(=O)c1ccccc1)c1ccccc1 (centres undefined),> 100 µM,> 100 µM,–,> 100 µM,> 100 µM,> 100 µM,> 100 µM,> 100 µM,> 100 µM,> 100 µM,–,–,–,–
Nc1ccccc1Sc1ccc(Cl)cc1,–,> 100 µM,–,–,72.1 µM,87.8 µM,–,88.9 µM,–,> 100 µM,–,–,–,–
CCOC(=O)c1c(NC(=O)c2ccccc2)sc2c1CCC2,> 100 µM,–,> 100 µM,> 100 µM,> 100 µM,> 100 µM,> 100 µM,> 100 µM,> 100 µM,–,–,–,–,–
Cn1c2ccccc2n2c3ccccc3c(=S)c(C#N)c12,> 100 µM,> 100 µM,> 100 µM,> 100 µM,> 100 µM,> 100 µM,> 100 µM,> 100 µM,–,–,–,–,–,–
N#C[C@](CO)(NC(=O)OCc1ccccc1)C(F)F,> 100 µM,> 100 µM,–,> 100 µM,> 100 µM,> 100 µM,> 100 µM,> 100 µM,> 100 µM,> 100 µM,–,–,–,–
C=CCN1C(=O)/C(=C/c2cccs2)N=C1SC1OC(COC(=O)c2ccccc2)C(OC(=O)c2ccccc2)C1OC(=O)c1ccccc1 (centres undefined),> 100 µM,> 100 µM,–,> 100 µM,> 100 µM,> 100 µM,–,> 100 µM,–,> 100 µM,–,–,–,–
CCOC(=O)NC(N(C)C(C(C)C)P(=O)(OCC)OCC)(C(F)(F)F)C(F)(F)F (centres undefined),> 100 µM,–,> 100 µM,> 100 µM,> 100 µM,> 100 µM,> 100 µM,> 100 µM,> 100 µM,> 100 µM,–,–,–,–
COC(=O)[C@H]1ON2O[C@@H](O[C@H]3CCCC[C@@H]3C(C)(C)c3ccccc3)C[C@@H]3CC[C@H]1[C@@]32C,> 100 µM,> 100 µM,> 100 µM,> 100 µM,> 100 µM,–,–,> 100 µM,> 100 µM,–,–,–,–,–
